Reference: article PMC5218480 (PLoS ONE, 2017)

System: MV-4-11 cells
Experiment: Gene expression microarray analysis (Affymetrix PrimeView) and GSEA
Type: cell-based, human
Parameters: RFU PODN (11730768_x_at) / Fold change /veh PODN (11730768_x_at) / RFU LINC00158 (11744669_a_at) / Fold change /veh LINC00158 (11744669_a_at) / RFU DUSP10 (11751237_a_at) / Fold change /veh DUSP10 (11751237_a_at) / RFU ID3 (11757404_x_at) / Fold change /veh ID3 (11757404_x_at) / RFU PLEKHG5 (11737974_s_at) / Fold change /veh PLEKHG5 (11737974_s_at) / RFU LRRC4B (11730491_at) / Fold change /veh LRRC4B (11730491_at) / RFU GIMAP4 (11747438_a_at) / Fold change /veh GIMAP4 (11747438_a_at) / RFU KRT8 (11758183_x_at) / Fold change /veh KRT8 (11758183_x_at) / RFU CNN1 (11734310_a_at) / Fold change /veh CNN1 (11734310_a_at) / RFU VPS37D (11726825_at) / Fold change /veh VPS37D (11726825_at) / RFU C10orf10 (11716522_x_at) / Fold change /veh C10orf10 (11716522_x_at) / RFU KIR2DL2 /// KIR2DL4 /// KIR2DL5A /// KIR2DL5B /// KIR2DS1 /// KIR2DS2 /// KIR2DS3 /// KIR2DS4 /// KIR3DL3 /// KIR3DL3 /// KIR3DS1 (11738374_at) / Fold change /veh KIR2DL2 /// KIR2DL4 /// KIR2DL5A /// KIR2DL5B /// KIR2DS1 /// KIR2DS2 /// KIR2DS3 /// KIR2DS4 /// KIR3DL3 /// KIR3DL3 /// KIR3DS1 (11738374_at) / RFU C1QL1 (11718748_at) / Fold change /veh C1QL1 (11718748_at) / RFU TMPRSS4 (11747572_a_at) / Fold change /veh TMPRSS4 (11747572_a_at) / RFU HAMP (11756126_x_at) / Fold change /veh HAMP (11756126_x_at) / RFU RNFT2 (11725882_a_at) / Fold change /veh RNFT2 (11725882_a_at) / RFU NR4A2 (11747474_a_at) / Fold change /veh NR4A2 (11747474_a_at) / RFU ABCC12 (11746883_a_at) / Fold change /veh ABCC12 (11746883_a_at) / RFU TMEM136 (11760407_x_at) / Fold change /veh TMEM136 (11760407_x_at) / RFU CLDN22 /// WWC2 (11732394_at) / Fold change /veh CLDN22 /// WWC2 (11732394_at) / RFU HLA-DPB1 (11760878_x_at) / Fold change /veh HLA-DPB1 (11760878_x_at) / RFU SPINT1 (11716480_a_at) / Fold change /veh SPINT1 (11716480_a_at) / RFU GAP43 (11754022_s_at) / Fold change /veh GAP43 (11754022_s_at) / RFU A4GNT (11735810_at) / Fold change /veh A4GNT (11735810_at) / RFU PRB3 (11715151_x_at) / Fold change /veh PRB3 (11715151_x_at) / RFU TUBB4B (11761932_at) / Fold change /veh TUBB4B (11761932_at) / RFU CAPN14 (11732068_a_at) / Fold change /veh CAPN14 (11732068_a_at) / RFU TMCC2 (11721928_a_at) / Fold change /veh TMCC2 (11721928_a_at) / RFU IRGQ (11745062_a_at) / Fold change /veh IRGQ (11745062_a_at) / RFU FAM174B (11720279_a_at) / Fold change /veh FAM174B (11720279_a_at) / RFU TMPRSS4 (11748680_a_at) / Fold change /veh TMPRSS4 (11748680_a_at) / RFU FAM212B (11763350_a_at) / Fold change /veh FAM212B (11763350_a_at) / RFU PLEKHG5 (11743358_a_at) / Fold change /veh PLEKHG5 (11743358_a_at) / RFU ZSCAN30 (11745921_a_at) / Fold change /veh ZSCAN30 (11745921_a_at) / RFU CMKLR1 (11741424_a_at) / Fold change /veh CMKLR1 (11741424_a_at) / RFU LOC101060620 /// MAPK8IP1 (11723275_at) / Fold change /veh LOC101060620 /// MAPK8IP1 (11723275_at) / RFU SPTSSB (11747773_x_at) / Fold change /veh SPTSSB (11747773_x_at) / RFU PRSS12 (11739890_at) / Fold change /veh PRSS12 (11739890_at) / RFU BIN1 (11741810_x_at) / Fold change /veh BIN1 (11741810_x_at) / RFU WNT11 (11732464_a_at) / Fold change /veh WNT11 (11732464_a_at) / RFU C10orf10 (11716521_a_at) / Fold change /veh C10orf10 (11716521_a_at) / RFU C5orf56 (11738089_at) / Fold change /veh C5orf56 (11738089_at) / RFU CYB561 (11721691_x_at) / Fold change /veh CYB561 (11721691_x_at) / RFU ANKRD19P (11752326_a_at) / Fold change /veh ANKRD19P (11752326_a_at) / RFU OR2T12 /// OR2T33 /// OR2T8 (11738714_s_at) / Fold change /veh OR2T12 /// OR2T33 /// OR2T8 (11738714_s_at) / RFU VCAN (11748164_a_at) / Fold change /veh VCAN (11748164_a_at) / RFU JSRP1 (11732532_at) / Fold change /veh JSRP1 (11732532_at) / RFU KRTAP10-11 (11738290_x_at) / Fold change /veh KRTAP10-11 (11738290_x_at) / RFU MYO3A (11730013_a_at) / Fold change /veh MYO3A (11730013_a_at) / RFU EBF3 (11725865_a_at) / Fold change /veh EBF3 (11725865_a_at) / RFU CAMK2N1 (11719241_x_at) / Fold change /veh CAMK2N1 (11719241_x_at) / RFU C5orf56 (11738088_a_at) / Fold change /veh C5orf56 (11738088_a_at) / RFU OLFML3 (11715873_a_at) / Fold change /veh OLFML3 (11715873_a_at) / RFU LOC100653217 /// NTM (11731650_a_at) / Fold change /veh LOC100653217 /// NTM (11731650_a_at) / RFU MAPK11 (11762145_a_at) / Fold change /veh MAPK11 (11762145_a_at) / RFU FIZ1 (11724087_x_at) / Fold change /veh FIZ1 (11724087_x_at) / RFU OASL (11726364_x_at) / Fold change /veh OASL (11726364_x_at) / RFU SOX15 (11748057_x_at) / Fold change /veh SOX15 (11748057_x_at) / RFU CD79A (11719716_a_at) / Fold change /veh CD79A (11719716_a_at) / RFU HIST1H1D (11736915_at) / Fold change /veh HIST1H1D (11736915_at) / RFU CASKIN2 (11723855_a_at) / Fold change /veh CASKIN2 (11723855_a_at) / RFU LOC730098 (11760151_x_at) / Fold change /veh LOC730098 (11760151_x_at) / RFU OR4N2 (11742367_at) / Fold change /veh OR4N2 (11742367_at) / RFU PRRT2 (11749266_a_at) / Fold change /veh PRRT2 (11749266_a_at) / RFU SNX32 (11753110_a_at) / Fold change /veh SNX32 (11753110_a_at) / RFU CDHR5 (11726645_a_at) / Fold change /veh CDHR5 (11726645_a_at) / RFU RCAN1 (11760418_a_at) / Fold change /veh RCAN1 (11760418_a_at) / RFU FAM167A (11723789_a_at) / Fold change /veh FAM167A (11723789_a_at) / RFU FAM26E (11764081_at) / Fold change /veh FAM26E (11764081_at) / RFU ISYNA1 (11749810_s_at) / Fold change /veh ISYNA1 (11749810_s_at) / RFU ACY1 (11761880_at) / Fold change /veh ACY1 (11761880_at) / RFU 11764098_at / Fold change /veh 11764098_at / RFU SAMD14 (11745864_x_at) / Fold change /veh SAMD14 (11745864_x_at) / RFU NPB (11741838_a_at) / Fold change /veh NPB (11741838_a_at) / RFU TMPRSS6 (11731388_a_at) / Fold change /veh TMPRSS6 (11731388_a_at) / RFU KRTAP10-2 (11738614_at) / Fold change /veh KRTAP10-2 (11738614_at) / RFU ARHGAP8 /// PRR5-ARHGAP8 (11727945_x_at) / Fold change /veh ARHGAP8 /// PRR5-ARHGAP8 (11727945_x_at) / RFU KRTAP5-7 /// NADSYN1 (11734609_at) / Fold change /veh KRTAP5-7 /// NADSYN1 (11734609_at) / RFU RASL12 (11751679_a_at) / Fold change /veh RASL12 (11751679_a_at) / RFU CDKN2B (11736163_a_at) / Fold change /veh CDKN2B (11736163_a_at) / RFU PRF1 (11729649_at) / Fold change /veh PRF1 (11729649_at) / RFU, ZNF638 /// ZNF638-IT1 / Fold change vs veh, ZNF638 /// ZNF638-IT1 / RFU, PANK3 / Fold change vs veh, PANK3 / RFU, SH3YL1 / Fold change vs veh, SH3YL1 / RFU, ZEB2 / Fold change vs veh, ZEB2 / RFU, NRIP1 / Fold change vs veh, NRIP1 / RFU, PTTG1IP / Fold change vs veh, PTTG1IP / RFU, CAPN2 / Fold change vs veh, CAPN2 / RFU, MED14 / Fold change vs veh, MED14 / RFU, SNORA58 / Fold change vs veh, SNORA58 / RFU, C1orf63 / Fold change vs veh, C1orf63 / RFU, LRRFIP1 / Fold change vs veh, LRRFIP1 / RFU, NDUFAF7 / Fold change vs veh, NDUFAF7 / RFU, SLC12A2 / Fold change vs veh, SLC12A2 / RFU, IBTK / Fold change vs veh, IBTK / RFU, ESF1 / Fold change vs veh, ESF1 / Fold change vs veh, TMEM50B / RFU, TAOK1 / Fold change vs veh, TAOK1 / RFU, ACBD3 / Fold change vs veh, ACBD3 / RFU, TMA16 / Fold change vs veh, TMA16 / RFU, RWDD3 / Fold change vs veh, RWDD3 / RFU, BCAT1 / Fold change vs veh, BCAT1 / RFU, EDEM3 / Fold change vs veh, EDEM3 / RFU, TMEM33 / Fold change vs veh, TMEM33 / RFU, WDR75 / Fold change vs veh, WDR75 / RFU, AHCTF1 / Fold change vs veh, AHCTF1 / RFU, TFRC / Fold change vs veh, TFRC / RFU, ZDHHC17 / Fold change vs veh, ZDHHC17 / RFU, NOM1 / Fold change vs veh, NOM1 / RFU, ARL8B / Fold change vs veh, ARL8B / RFU, ZBTB11 / Fold change vs veh, ZBTB11 / RFU, TAMM41 / Fold change vs veh, TAMM41 / RFU, KIAA1704 /// LOC100996395 / Fold change vs veh, KIAA1704 /// LOC100996395 / RFU, ING1 / Fold change vs veh, ING1 / RFU, TRMT61B / Fold change vs veh, TRMT61B / RFU, FUBP3 / Fold change vs veh, FUBP3 / RFU, TP53 / Fold change vs veh, TP53 / RFU, TNKS2 / Fold change vs veh, TNKS2 / RFU, ZFP14 / Fold change vs veh, ZFP14 / RFU, ACTR2 / Fold change vs veh, ACTR2 / RFU, PPP3R1 / Fold change vs veh, PPP3R1 / RFU, PIK3R1 / Fold change vs veh, PIK3R1 / RFU, HNRNPA1 / Fold change vs veh, HNRNPA1 / RFU, RNF170 / Fold change vs veh, RNF170 / RFU, ZNF28 / Fold change vs veh, ZNF28 / RFU, RNGTT / Fold change vs veh, RNGTT / RFU, OGT / Fold change vs veh, OGT / RFU, BRD1 / Fold change vs veh, BRD1 / RFU, MARS / Fold change vs veh, MARS / RFU, ZNF655 / Fold change vs veh, ZNF655 / RFU, FAHD1 / Fold change vs veh, FAHD1 / RFU, BDP1 / Fold change vs veh, BDP1 / RFU, LRRCC1 / Fold change vs veh, LRRCC1 / RFU, ARID1A / Fold change vs veh, ARID1A / RFU, ZNF146 / Fold change vs veh, ZNF146 / RFU, ZNF330 / Fold change vs veh, ZNF330 / RFU, GPN3 / Fold change vs veh, GPN3 / RFU, C9orf123 / Fold change vs veh, C9orf123 / RFU, N4BP2L2 / Fold change vs veh, N4BP2L2 / RFU, ARFIP1 / Fold change vs veh, ARFIP1 / RFU, FAM179B / Fold change vs veh, FAM179B / RFU, BCL10 / Fold change vs veh, BCL10 / RFU, UHRF1BP1L / Fold change vs veh, UHRF1BP1L / RFU, BET1 / Fold change vs veh, BET1 / RFU, CNOT2 / Fold change vs veh, CNOT2 / RFU, ZNF268 / Fold change vs veh, ZNF268 / Fold change vs veh, ZNF507 / RFU, DGCR2 / Fold change vs veh, DGCR2 / RFU, WDSUB1 / Fold change vs veh, WDSUB1 / Fold change vs veh, HSP90B1 /// MIR3652 / RFU, ADSS / Fold change vs veh, ADSS / RFU, GK / Fold change vs veh, GK / RFU, ZNF148 / Fold change vs veh, ZNF148 / RFU, TAF9 / Fold change vs veh, TAF9 / RFU, SLC1A5 / Fold change vs veh, SLC1A5 / RFU, SLMO2 / Fold change vs veh, SLMO2 / RFU, ABCC4 / Fold change vs veh, ABCC4 / RFU, LOC101060439 /// RAP1B / Fold change vs veh, LOC101060439 /// RAP1B / RFU, RFX7 / Fold change vs veh, RFX7 / RFU, GTPBP10 / Fold change vs veh, GTPBP10 / RFU, CNEP1R1 / Fold change vs veh, CNEP1R1 / RFU, BIVM-ERCC5 /// ERCC5 / Fold change vs veh, BIVM-ERCC5 /// ERCC5 / RFU, ILF3 / Fold change vs veh, ILF3 / RFU 11762660_at / Fold change /veh 11762660_at / RFU VCAN (11757783_s_at) / Fold change /veh VCAN (11757783_s_at) / RFU DDX43 (11728927_at) / Fold change /veh DDX43 (11728927_at) / RFU KRT8 (11758188_x_at) / Fold change /veh KRT8 (11758188_x_at) / RFU NKD1 (11759106_at) / Fold change /veh NKD1 (11759106_at) / RFU SRD5A1 (11742802_a_at) / Fold change /veh SRD5A1 (11742802_a_at) / RFU TPSAB1 /// TPSB2 (11721975_s_at) / Fold change /veh TPSAB1 /// TPSB2 (11721975_s_at) / RFU GSTM3 (11746129_a_at) / Fold change /veh GSTM3 (11746129_a_at) / RFU IL23R (11737362_x_at) / Fold change /veh IL23R (11737362_x_at) / RFU TMEM51 (11727254_a_at) / Fold change /veh TMEM51 (11727254_a_at) / RFU PIWIL2 (11732686_x_at) / Fold change /veh PIWIL2 (11732686_x_at) / RFU ORM1 (11744905_x_at) / Fold change /veh ORM1 (11744905_x_at) / RFU CCDC152 (11743942_at) / Fold change /veh CCDC152 (11743942_at) / RFU ECM1 (11717891_a_at) / Fold change /veh ECM1 (11717891_a_at) / RFU IL23R (11748794_a_at) / Fold change /veh IL23R (11748794_a_at) / RFU TNFAIP8L3 (11732012_x_at) / Fold change /veh TNFAIP8L3 (11732012_x_at) / RFU MBOAT4 (11741988_at) / Fold change /veh MBOAT4 (11741988_at) / RFU 11764193_at / Fold change /veh 11764193_at / RFU TMEM53 (11763286_at) / Fold change /veh TMEM53 (11763286_at) / RFU MAGEB2 (11727129_at) / Fold change /veh MAGEB2 (11727129_at) / RFU TMEM200A (11744735_a_at) / Fold change /veh TMEM200A (11744735_a_at) / RFU CCDC152 (11751479_a_at) / Fold change /veh CCDC152 (11751479_a_at) / RFU FAM211A (11726209_a_at) / Fold change /veh FAM211A (11726209_a_at) / RFU RGS16 (11746705_a_at) / Fold change /veh RGS16 (11746705_a_at) / RFU VCAN (11755009_s_at) / Fold change /veh VCAN (11755009_s_at) / RFU RHOB (11743442_s_at) / Fold change /veh RHOB (11743442_s_at) / RFU RGS16 (11720943_a_at) / Fold change /veh RGS16 (11720943_a_at) / RFU RGS16 (11720944_at) / Fold change /veh RGS16 (11720944_at) / RFU, VPS4B / Fold change vs veh, VPS4B / RFU, CREB1 / Fold change vs veh, CREB1 / RFU, DNAJC13 / Fold change vs veh, DNAJC13 / RFU, GNAQ / Fold change vs veh, GNAQ / RFU, CDK5R1 / Fold change vs veh, CDK5R1 / RFU, ZRANB3 / Fold change vs veh, ZRANB3 / RFU, CUL4A / Fold change vs veh, CUL4A / RFU, CCNY / Fold change vs veh, CCNY / RFU, UFL1 / Fold change vs veh, UFL1 / RFU, COG3 / Fold change vs veh, COG3 / RFU, DIAPH2 / Fold change vs veh, DIAPH2 / RFU, SKA2 / Fold change vs veh, SKA2 / RFU, AFF3 / Fold change vs veh, AFF3 / RFU, LMF1 / Fold change vs veh, LMF1 / RFU, IPO11 / Fold change vs veh, IPO11 / RFU, DFFB / Fold change vs veh, DFFB / RFU, FOXP1 / Fold change vs veh, FOXP1 / RFU, CARD8 / Fold change vs veh, CARD8 / RFU, STRN3 / Fold change vs veh, STRN3 / RFU, ADK / Fold change vs veh, ADK / RFU, RASSF2 / Fold change vs veh, RASSF2 / RFU, WIPF1 / Fold change vs veh, WIPF1 / RFU, LARP1B / Fold change vs veh, LARP1B / RFU, RASA1 / Fold change vs veh, RASA1 / RFU, RB1 / Fold change vs veh, RB1 / RFU, PPFIA1 / Fold change vs veh, PPFIA1 / RFU, MAT2A / Fold change vs veh, MAT2A / RFU, CCT5 / Fold change vs veh, CCT5 / RFU, WDR92 / Fold change vs veh, WDR92 / RFU, CUX1 / Fold change vs veh, CUX1 / RFU, TTC7A / Fold change vs veh, TTC7A / RFU, TMEM135 / Fold change vs veh, TMEM135 / RFU, DEPTOR / Fold change vs veh, DEPTOR / RFU, CPM / Fold change vs veh, CPM / RFU, DNAJB6 / Fold change vs veh, DNAJB6 / RFU, CACNA2D3 / Fold change vs veh, CACNA2D3 / RFU, DTX4 / Fold change vs veh, DTX4 / RFU, TFCP2 / Fold change vs veh, TFCP2 / RFU, GMCL1 /// GMCL1P1 / Fold change vs veh, GMCL1 /// GMCL1P1 / RFU, AEBP2 / Fold change vs veh, AEBP2 / RFU, SNHG1 /// SNORD22 /// SNORD25 /// SNORD26 /// SNORD27 /// SNORD28 /// SNORD29 /// SNORD31 / Fold change vs veh, SNHG1 /// SNORD22 /// SNORD25 /// SNORD26 /// SNORD27 /// SNORD28 /// SNORD29 /// SNORD31 / Fold change (Aza/veh), C12orf56 (ProbeSet 11735607_a_at) / Fold change (ACY-1035/veh), C12orf56 (ProbeSet 11735607_a_at) / Fold change (Aza/veh), FGFR1OP (ProbeSet 11751329_s_at) / Fold change (ACY-1035/veh), FGFR1OP (ProbeSet 11751329_s_at) / Fold change (Aza/veh), VPS36 (ProbeSet 11739960_a_at) / Fold change (ACY-1035/veh), VPS36 (ProbeSet 11739960_a_at) / RFU SYPL1 (11715823_x_at) / Fold change /veh SYPL1 (11715823_x_at) / RFU IGFBP7 (11715501_s_at) / Fold change /veh IGFBP7 (11715501_s_at) / RFU REEP3 (11722064_at) / Fold change /veh REEP3 (11722064_at) / RFU IGLL1 (11728026_x_at) / Fold change /veh IGLL1 (11728026_x_at): dose or concentration left out as unconfirmed
Details: ProbeSet 11719185_x_at; LIST B

**Q.** For `Nc1ncn([C@@H]2O[C@H](CO)[C@@H](O)[C@H]2O)c(=O)n1` [azacitidine], which “Fold change vs veh, N4BP2L2” value is on record?
**A.** Its value is 0.90.
